From paper PMC6218799 (BioMed Research International, 2018)

How the values were obtained:
CYP3A4 [1] = experiment: Cocktail method in rats: pharmacokinetics of probe drug midazolam (CYP3A4 activity); conditions: male, Wistar, rat, plasma, iv, 5 mg/kg, midazolam 5 mg/kg iv; for AUC(0-t): AUC0~t; for AUC(0-inf): AUC0~∞; for clearance: Cl
Experimental: (§1) UltiMate3000 HPLC equipped with diode array detector was used to analyze the compounds.
(§2) Forty-eight male Wistar rats (220 ± 20 g) were randomly divided into two control groups, two Digeda groups, and two positive groups (n=8). […] The other groups were given the mixture of two probe drugs (omeprazole and midazolam were 10 mg/kg and 5 mg/kg) by intravenous injection.
(§3) The samples were immediately centrifuged at 3500 r/min for 10 min, and 200 μL plasma was obtained from each sample.
(§4) The plasma samples were extracted. In a 5 mL centrifuge tube, 100 μL of the IS working solution (0.1 mg/mL) was added to 200 uL of collected plasma sample followed by the addition of 2 mL of dichloromethane. After the tube was vortex-mixed for 5 min, the sample was centrifuged at 3500 r/min for 10 min. 1.2 mL of the organic phase was transferred into the other glass tube and was dried by nitrogen. The residue was redissolved with 200 μL methanol and then injected into the HPLC system for analysis. The concentration of probe drugs in plasma was measured by HPLC.
(§5) Plasma probe drug concentration versus time data for each rat was analyzed by DAS software (version 3.0, Drug Clinical Research Center of Shanghai University of TCM and Shanghai BioGuider Medicinal Technology, Co. Ltd., China). The pharmacokinetic parameters of the Digeda group and control group probe drugs with the t-test were analyzed using SPSS 17.0 statistical software. p < 0.05 was considered statistically significant.

CYP3A4 [2] = conditions: healthy volunteers; cited from earlier work
CYP1A2 [3] = tested on: CYP1A2; design: method as in ref 43 = [43]; 43 Du Y. Zhu R.-H. Su F.-L. Wang F. Liang H.-X. Li H.-D. Effect of oleanolic acid on CYP1A2, CYP2E1 and CYP3A4 activity in healthy subjects Chinese Pharmaceutical Journal 2008 43 4 300 303 2-s2.0-5304; conditions: healthy volunteers; cited from earlier work
CYP2E1 = tested on: CYP2E1; design: method as in ref 43 = [43]; 43 Du Y. Zhu R.-H. Su F.-L. Wang F. Liang H.-X. Li H.-D. Effect of oleanolic acid on CYP1A2, CYP2E1 and CYP3A4 activity in healthy subjects Chinese Pharmaceutical Journal 2008 43 4 300 303 2-s2.0-5304; conditions: healthy volunteers; cited from earlier work
CYP2C19 [4] = experiment: Cocktail method in rats: pharmacokinetics of probe drug omeprazole (CYP2C19 activity); assay type: in vivo; conditions: male, Wistar, omeprazole 10 mg/kg iv
Experimental: as §1, §2, §3, §4, §5

CYP1A2 [5] = target: T1, CYP1A2 (Rattus norvegicus, UniProt P04799); experiment: Cocktail method in rats: pharmacokinetics of probe drug theophylline (CYP1A2 activity); assay type: in vivo; conditions: male, Wistar, plasma, iv, 10 mg/kg, theophylline 10 mg/kg iv
T1 construct: from tissue; host or cells: whole animal, male Wistar rats (in vivo pharmacokinetics)
T1 sequence (P04799 1-513): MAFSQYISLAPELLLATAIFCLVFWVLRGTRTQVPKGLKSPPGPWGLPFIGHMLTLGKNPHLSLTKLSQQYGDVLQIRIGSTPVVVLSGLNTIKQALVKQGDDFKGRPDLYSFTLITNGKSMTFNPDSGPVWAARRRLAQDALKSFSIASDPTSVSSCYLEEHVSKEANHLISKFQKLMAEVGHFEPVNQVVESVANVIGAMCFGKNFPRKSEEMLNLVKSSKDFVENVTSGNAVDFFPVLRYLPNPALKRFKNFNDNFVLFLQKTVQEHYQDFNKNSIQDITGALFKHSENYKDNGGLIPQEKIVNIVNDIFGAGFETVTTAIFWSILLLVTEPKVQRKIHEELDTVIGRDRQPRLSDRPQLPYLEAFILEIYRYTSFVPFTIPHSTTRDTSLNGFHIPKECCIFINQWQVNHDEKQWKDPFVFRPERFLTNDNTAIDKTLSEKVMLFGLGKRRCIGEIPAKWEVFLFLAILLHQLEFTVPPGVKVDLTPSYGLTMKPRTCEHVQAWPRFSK
Experimental: as §1, §2, §3, §4, §5

CYP2C9 [6] = tested on: CYP2C9; design: method as in ref 45 = [45]; 45 Han Y. L. Meng X. L. Li D. In Vitro Inhibition of Six Cytochrome P450 Isoforms in Human Liver Microsomes by Qingkailing Injection and Its Two Active Components(Baicalin and Geniposide) Chinese Phar; conditions: Han's research; cited from earlier work
CYP2C19 [7] = tested on: CYP2C19; design: method as in ref 45 = [45]; 45 Han Y. L. Meng X. L. Li D. In Vitro Inhibition of Six Cytochrome P450 Isoforms in Human Liver Microsomes by Qingkailing Injection and Its Two Active Components(Baicalin and Geniposide) Chinese Phar; conditions: Han's research; cited from earlier work
CYP3A4 [8] = tested on: CYP3A4; design: method as in ref 45 = [45]; 45 Han Y. L. Meng X. L. Li D. In Vitro Inhibition of Six Cytochrome P450 Isoforms in Human Liver Microsomes by Qingkailing Injection and Its Two Active Components(Baicalin and Geniposide) Chinese Phar; conditions: Han's research; cited from earlier work
CYP1A2 [9] = tested on: CYP1A2; design: method as in ref 45 = [45]; 45 Han Y. L. Meng X. L. Li D. In Vitro Inhibition of Six Cytochrome P450 Isoforms in Human Liver Microsomes by Qingkailing Injection and Its Two Active Components(Baicalin and Geniposide) Chinese Phar; conditions: Han's research; cited from earlier work
CYP2C19 [10] = conditions: in vivo; cited from earlier work
CYP2C9 [11] = tested on: CYP2C9; design: method as in ref 44 = [44]; 44 Zhang Y. D. Liu X. Q. Guo Y. L. Effects of 20 active ingredients of traditional Chinese herbs on CYP2C9 activities in rat liver microsomes Journal of Third Military Medical University 2013 35 24 26; conditions: rat liver microsomes in vitro; cited from earlier work
[12] = Digeda group (Digeda-4 decoction 600 mg/kg ig 14 days)
[13] = control group (saline ig 14 days)
[14] = positive group (phenobarbital 50 mg/kg ip 7 days)
[15] = positive group (phenobarbital 50 mg/kg ip 7 days), rat plasma
[16] = rat, plasma, iv, 10 mg/kg, Digeda group (Digeda-4 decoction 600 mg/kg ig 14 days)
[17] = rat, plasma, iv, 10 mg/kg, control group (saline ig 14 days)
[18] = rat, plasma, iv, 10 mg/kg, positive group (phenobarbital 50 mg/kg ip 7 days)

`Cc1ncc2n1-c1ccc(Cl)cc1C(c1ccccc1F)=NC2` [Midazolam, midazolam] showed an AUC(0-t) (CYP3A4 [1]; [12]) of 1170 ± 209 ng·h/mL, an AUC(0-t) (CYP3A4 [1]; [13]) of 881 ± 151 ng·h/mL and an AUC(0-t) (CYP3A4 [1]; [14]) of 653 ± 95 ng·h/mL. The AUC(0-inf) (CYP3A4 [1]; [12]) was 1360 ± 309 ng·h/mL, the AUC(0-inf) (CYP3A4 [1]; [13]) was 928 ± 157 ng·h/mL and the AUC(0-inf) (CYP3A4 [1]; [14]) was 711 ± 125 ng·h/mL. It also gave a clearance (CYP3A4 [1]; [12]) of 69.7 mL/min/kg, a clearance (CYP3A4 [1]; [13]) of 104 mL/min/kg and a clearance (CYP3A4 [1]; [14]) of 115 mL/min/kg. The Cmax (CYP3A4 [1]; [12]) was 2680 ± 509 ng/mL, the Cmax (CYP3A4 [1]; [13]) was 2900 ± 491 ng/mL and the Cmax (CYP3A4 [1]; [14]) was 2560 ± 507 ng/mL. The half-life (CYP3A4 [1]; T1/2, Digeda group (Digeda-4 decoction 600 mg/kg ig 14 days)) was 11.9 ± 1.92 min, the half-life (CYP3A4 [1]; T1/2, control group (saline ig 14 days)) was 8.64 ± 1.8 min and the half-life (CYP3A4 [1]; T1/2, positive group (phenobarbital 50 mg/kg ip 7 days)) was 6.3 ± 0.96 min.

For `CC1(C)CC[C@]2(C(=O)O)CC[C@]3(C)C(=CC[C@@H]4[C@@]5(C)CC[C@H](O)C(C)(C)[C@@H]5CC[C@]43C)[C@@H]2C1` [Oleanolic acid], the “effect on CYP3A4” value (CYP3A4 [2]) is listed as “no effect”, the “effect on CYP1A2 activity” value (CYP1A2 [3]) is listed as “can inhibit CYP1A2 activity significantly” and the “effect on CYP2E1 activity” value (CYP2E1) is listed as “little inhibition”.

In the case of `COc1ccc2[nH]c([S+]([O-])Cc3ncc(C)c(OC)c3C)nc2c1` (stereo not drawn) [Omeprazole, omeprazole], the clearance (CYP2C19 [4]; [15]) is reported as 10.2 mL/min/kg, the half-life (CYP2C19 [4]; [15]) is reported as 7.08 ± 1.2 min and the AUC(0-inf) (CYP2C19 [4]; [16]) is reported as 14200 ± 2610 ng·h/mL. It also gave an AUC(0-t) (CYP2C19 [4]; [16]) of 13300 ± 2630 ng·h/mL, a Cmax (CYP2C19 [4]; [16]) of 38600 ± 6690 ng/mL and a clearance (CYP2C19 [4]; [16]) of 4.9 mL/min/kg. It also gave a half-life (CYP2C19 [4]; [16]) of 16.9 ± 2.76 min, an AUC(0-inf) (CYP2C19 [4]; [17]) of 7280 ± 1310 ng·h/mL and an AUC(0-t) (CYP2C19 [4]; [17]) of 6920 ± 1390 ng·h/mL. The Cmax (CYP2C19 [4]; [17]) was 20900 ± 3710 ng/mL, the clearance (CYP2C19 [4]; [17]) was 8 mL/min/kg and the half-life (CYP2C19 [4]; [17]) was 9.78 ± 1.92 min. For the same compound, the AUC(0-inf) (CYP2C19 [4]; [18]) was 5340 ± 993 ng·h/mL, the AUC(0-t) (CYP2C19 [4]; [18]) was 4980 ± 845 ng·h/mL and the Cmax (CYP2C19 [4]; [18]) was 16900 ± 2630 ng/mL.

In the case of `Cn1c(=O)c2[nH]cnc2n(C)c1=O` [Theophylline, theophylline], the AUC(0-inf) (CYP1A2 [5]; [12]) is reported as 569000 ± 142000 ng·h/mL, the AUC(0-t) (CYP1A2 [5]; [12]) is reported as 299000 ± 67000 ng·h/mL and the Cmax (CYP1A2 [5]; [12]) is reported as 30700 ± 5450 ng/mL. The clearance (CYP1A2 [5]; [12]) was 0.333 mL/min/kg, the half-life (CYP1A2 [5]; [12]) was 835 ± 160 min and the AUC(0-inf) (CYP1A2 [5]; [13]) was 326000 ± 76900 ng·h/mL. For the same compound, the AUC(0-t) (CYP1A2 [5]; [13]) was 206000 ± 37100 ng·h/mL, the Cmax (CYP1A2 [5]; [13]) was 31800 ± 5610 ng/mL and the clearance (CYP1A2 [5]; [13]) was 0.55 mL/min/kg. It also gave a half-life (CYP1A2 [5]; [13]) of 402 ± 97.5 min, an AUC(0-inf) (CYP1A2 [5]; [14]) of 118000 ± 21400 ng·h/mL and an AUC(0-t) (CYP1A2 [5]; [14]) of 71900 ± 15400 ng·h/mL. It also gave a Cmax (CYP1A2 [5]; [14]) of 30000 ± 5180 ng/mL, a clearance (CYP1A2 [5]; [14]) of 1.02 mL/min/kg and a half-life (CYP1A2 [5]; [14]) of 148 ± 21.5 min.

In the case of `COC(=O)C1=CO[C@@H](O[C@@H]2O[C@H](CO)[C@@H](O)[C@H](O)[C@H]2O)[C@@H]2C(CO)=CC[C@H]12` [geniposide], the “inhibitory effect on CYP2C9” value (CYP2C9 [6]) is listed as “no inhibitory effect”, the “inhibitory effect on CYP2C19” value (CYP2C19 [7]) is listed as “no inhibitory effect” and the “inhibitory effect on CYP3A4” value (CYP3A4 [8]) is listed as “no inhibitory effect”. The “inhibitory effect on CYP1A2” value (CYP1A2 [9]) was “no inhibitory effect”.

In the case of `COc1cc(C(=O)O[C@H]2[C@@H]3C=CO[C@@H](O[C@@H]4O[C@H](CO)[C@@H](O)[C@H](O)[C@H]4O)[C@@H]3[C@@]3(CO)O[C@@H]23)ccc1O` [picroside II], the “effect on the activity of CYP2C19” value (CYP2C19 [10]) is given as “inhibitory effect”.

For `C=C[C@H]1[C@H](O[C@@H]2O[C@H](CO)[C@@H](O)[C@H](O)[C@H]2O)OC=C2C(=O)OCC[C@]21O` [swertiamarin], the “effect on CYP2C9 activity” value (CYP2C9 [11]) is listed as “inhibitory effect”.
